# Test results: patent US20200164038A1, “MODIFIED NUCLEOSIDE, NUCLEOTIDE, AND NUCLEIC ACID COMPOSITIONS” (ModernaTX, Inc., priority 2011, published 2020)
# Legend:
# [1] = test system: Human primary foreskin fibroblasts (BJ fibroblasts); test: Innate immune response transcripts in BJ fibroblasts, single transfection (qPCR); assay type: cell-based; conditions: 250 ng, 18 hours
# Description: Control samples of poly I:C.
# [2] = test system: TNF-alpha; test: Chemical modification ranges, modified RNA transfected in PBMC, TNF-alpha ELISA; assay type: cell-based, human
# Experimental: (§1) The supernatant was harvested and run by ELISA 22 hours after transfection to determine the protein expression.
# [3] = test system: IFN-alpha; test: Chemical modification ranges, modified RNA transfected in PBMC, IFN-alpha ELISA; assay type: cell-based, human
# Experimental: 960 ng of G-CSF mRNA modified with 5-methylcytosine (5mC) and pseudouridine (pseudoU) or unmodified G-CSF mRNA was transfected with 0.8 uL of Lipofectamine 2000 into peripheral blood mononuclear cells (PBMC) from three normal blood donors (D1, D2, D3). […] The supernatant was harvested and run by ELISA 22 hours after transfection to determine the protein expression. The expression of IFN-alpha and TNF-alpha may be a secondary effect from the transfection of the G-CSF mRNA.
# [4] = test system: peripheral blood mononuclear cells (PBMC); test: In vitro PBMC study, percent modification: IFN-alpha and TNF-alpha by ELISA, PC ratio; assay type: cell-based, human
# Experimental: as §1
# [5] = Split dose study IM, serum human EPO, product per unit drug and dose splitting factor; assay type: in vivo, mice
# Experimental: The dosing vehicle (F. buffer) consisted of 150 mM NaCl, 2 mM CaCl2, 2 mM Na^+-phosphate (1.4 mM monobasic sodium phosphate; 0.6 mM dibasic sodium phosphate), and 0.5 mM EDTA, pH 6.5. The pH was adjusted using sodium hydroxide and the final solution was filter sterilized.
# Animals (n=5) were injected IM (intramuscular) for the single unit dose of 100 ug. For multi-dosing, two schedules were used, 3 doses of 100 ug and 6 doses of 100 ug. For the split dosing scheme, two schedules were used, 3 doses at 33.3 ug and 6 doses of 16.5 ug mmRNA. Control dosing involved use of buffer only at 6 doses. […] Blood and muscle tissue were evaluated 13 hrs post injection.
# Human EPO protein was measured in mouse serum 13 h post I.M. single, multi- or split dosing of the EPO mmRNA in buffer. Seven groups of mice (n=5 mice per group) were treated and evaluated.
# The splitting factor is defined as the product per unit drug divided by the single dose product per unit drug (PUD) For example for treatment group 2 the value 0.28 or product (EPO) per unit drug (mmRNA) is divided by the single dose product per unit drug of 0.14. The result is 2. Likewise, for treatment group 4, the value 1.1 or product (EPO) per unit drug (mmRNA) is divided by the single dose product per unit drug of 0.14. The result is 7.9. Consequently, the dose splitting factor (DSF) may be used as an indicator of the efficacy of a split dose regimen. For any single administration of a total daily dose, the DSF should be equal to 1. Therefore any DSF greater than this value in a split dose regimen is an indication of increased efficacy.
# [6] = Stability of modified RNA on storage (gel electrophoresis); assay type: physicochemical
# Experimental: Stability experiments were conducted to obtain a better understanding of storage conditions to retain the integrity of modified RNA. […] 40° C. 37° C. 25° C. 4° C. or −20° C. After the mRNA had been stored for 0 hours, 2 hours, 6 hours, 24 hours, 48 hours, 5 days and 14 days, the mRNA was analyzed by gel electrophoresis using a Bio-Rad EXPERION™ system. The modified, unmodified and lipoplexed G-CSF mRNA was also stored in RNASTABLE® (Biomatrica, Inc. San Diego, Calif.) at 40° C. or water at −80° C. or 40° C. for 35 days before being analyzed by gel electrophoresis.
# mRNA samples stored at 4° C. 25° C. and 37° C. were stored in 1×TE buffer or the formulation buffer (150 mM sodium chloride, 2 mM calcium chloride, 2 mM phosphate, 0.5 mM EDTA at a pH of 6.5). The mRNA stored at 4° C. was stable to at least 60 days in both the TE and formulation buffer. At 25° C. the mRNA in formulation buffer was stable out to 14 days and the TE buffer was stable out to at least 6 days. Storage of mRNA in the formulation buffer at 37° C. was stable to 6 days compared to the TE buffer which was stable only until 4 days.
# [7] = test system: HEK293 cells; test: In vitro expression of VEGF modified mRNA (ELISA); assay type: cell-based
# [8] = group 1: 1 × 100 ug, total dose 100 ug
# [9] = group 2: 3 × 100 ug, total dose 300 ug
# [10] = group 3: 3 × 33.3 ug, total dose 600 ug
# [11] = group 4: 3 × 33.3 ug, total dose 100 ug
# [12] = group 5: 6 × 16.5 ug, total dose 100 ug
molecule,measurement,setting,value
poly I:C [P(I)P(C)],AIM2 transcript level,[1],0.100 fold-induction relative to HPRT
same,IFIT-1 transcript level,[1],71.914 fold-induction relative to HPRT
same,IFNa transcript level,[1],0.063 fold-induction relative to HPRT
same,IFNb transcript level,[1],1.523 fold-induction relative to HPRT
same,IL6 transcript level,[1],2.8 fold-induction relative to HPRT
same,OAS-1 transcript level,[1],8.628 fold-induction relative to HPRT
same,PKR transcript level,[1],10.326 fold-induction relative to HPRT
same,RIG-I transcript level,[1],30.0 fold-induction relative to HPRT
same,TNFa transcript level,[1],0.264 fold-induction relative to HPRT
same,TNF-alpha Expression,[2]; PBMC donor D1,61.2 pg/mL
same,TNF-alpha Expression,[2]; PBMC donor D2,4.4 pg/mL
same,TNF-alpha Expression,[2]; PBMC donor D3,69.1 pg/mL
same,IFN-alpha Expression,[3]; PBMC donor D1,1498.1 pg/mL
same,IFN-alpha Expression,[3]; PBMC donor D2,216.8 pg/mL
same,IFN-alpha Expression,[3]; PBMC donor D3,238.8 pg/mL
same,IFN-alpha Expression,"[4]; donor D1, 22 hours",130.8 pg/mL
same,TNF-alpha Expression,"[4]; donor D1, 22 hours",765.8 pg/mL
same,IFN-alpha Expression,"[4]; donor D2, 22 hours",297.1 pg/mL
same,TNF-alpha Expression,"[4]; donor D2, 22 hours",2362.7 pg/mL
same,IFN-alpha Expression,"[4]; donor D3, 22 hours",585.2 pg/mL
same,TNF-alpha Expression,"[4]; donor D3, 22 hours",420.4 pg/mL
"Human EPO mmRNA (nucleic acid, listed as Homo sapiens, 5' Cap1, polyA tail ~160 nt) sense: GGGAAAUAAGAGAGAAAAGAAGAGUAAGAAGAAAUAUAAGAGCCACCAUGGGAGUGCACGAGUGUCCCGCGUGGUUGUGGUUGCUGCUGUCGCUCUUGAGCCUCCCACUGGGACUGCCUGUGCUGGGGGCACCACCCAGAUUGAUCUGCGACUCACGGGUACUUGAGAGGUACCUUCUUGAAGCCAAAGAAGCCGAAAACAUCACAACCGGAUGCGCCGAGCACUGCUCCCUCAAUGAGAACAUUACUGUACCGGAUACAAAGGUCAAUUUCUAUGCAUGGAAGAGAAUGGAAGUAGGACAGCAGGCCGUCGAAGUGUGGCAGGGGCUCGCGCUUUUGUCGGAGGCGGUGUUGCGGGGUCAGGCCCUCCUCGUCAACUCAUCACAGCCGUGGGAGCCCCUCCAACUUCAUGUCGAUAAAGCGGUGUCGGGGCUCCGCAGCUUGACGACGUUGCUUCGGGCUCUGGGCGCACAAAAGGAGGCUAUUUCGCCGCCUGACGCGGCCUCCGCGGCACCCCUCCGAACGAUCACCGCGGACACGUUUAGGAAGCUUUUUAGAGUGUACAGCAAUUUCCUCCGCGGAAAGCUGAAAUUGUAUACUGGUGAAGCGUGUAGGACAGGGGAUCGCUGAUAAGCUGCCUUCUGCGGGGCUUGCCUUCUGGCCAUGCCCUUCUUCUCUCCCUUGCACCUGUACCUCUUGGUCUUUGAAUAAAGCCUGAGUAGGAAG",Dose Splitting Factor,[5]; [8],1
same,Polypeptide per unit drug,[5]; [8],0.14 pmol/µg
same,Dose Splitting Factor,[5]; [9],2
same,Polypeptide per unit drug,[5]; [9],0.28 pmol/µg
same,Dose Splitting Factor,[5]; [10],3.3
same,Polypeptide per unit drug,[5]; [10],0.46 pmol/µg
same,Dose Splitting Factor,[5]; [11],7.9
same,Polypeptide per unit drug,[5]; [11],1.1 pmol/µg
same,Dose Splitting Factor,[5]; [12],9.3
same,Polypeptide per unit drug,[5]; [12],1.3 pmol/µg
"G-CSF unmodified: unmodified G-CSF mRNA SEQ ID NO 6, Cap1 (nucleic acid, listed as Homo sapiens, Cap1) GGGAAAUAAGAGAGAAAAGAAGAGUAAGAAGAAAUAUAAGAGCCACCAUGGCCGGUCCCGCGACCCAAAGCCCCAUGAAACUUAUGGCCCUGCAGUUGCUGCUUUGGCACUCGGCCCUCUGGACAGUCCAAGAAGCGACUCCUCUCGGACCUGCCUCAUCGUUGCCGCAGUCAUUCCUUUUGAAGUGUCUGGAGCAGGUGCGAAAGAUUCAGGGCGAUGGAGCCGCACUCCAAGAGAAGCUCUGCGCGACAUACAAACUUUGCCAUCCCGAGGAGCUCGUACUGCUCGGGCACAGCUUGGGGAUUCCCUGGGCUCCUCUCUCGUCCUGUCCGUCGCAGGCUUUGCAGUUGGCAGGGUGCCUUUCCCAGCUCCACUCCGGUUUGUUCUUGUAUCAGGGACUGCUGCAAGCCCUUGAGGGAAUCUCGCCAGAAUUGGGCCCGACGCUGGACACGUUGCAGCUCGACGUGGCGGAUUUCGCAACAACCAUCUGGCAGCAGAUGGAGGAACUGGGGAUGGCACCCGCGCUGCAGCCCACGCAGGGGGCAAUGCCGGCCUUUGCGUCCGCGUUUCAGCGCAGGGCGGGUGGAGUCCUCGUAGCGAGCCACCUUCAAUCAUUUUUGGAAGUCUCGUACCGGGUGCUGAGACAUCUUGCGCAGCCGUGAAGCGCUGCCUUCUGCGGGGCUUGCCUUCUGGCCAUGCCCUUCUUCUCUCCCUUGCACCUGUACCUCUUGGUCUUUGAAUAAAGCCUGAGUAGGAAG",stable out to,[6]; stored at 25° C.,48 h
same,stable out to,[6]; stored at 37° C.,6 h
same,stable out to,[6]; stored at 50° C.,2 h
"VEGF-A: modified mRNA VEGF-A SEQ ID NO 19, Cap1, fully modified with 5-methylcytosine and pseudouridine, complexed with Lipofectamine2000 (nucleic acid, listed as Homo sapiens, Cap1, polyA tail, 5mC/pseudoU, Lipofectamine2000 complex) GGGAAAUAAGAGAGAAAAGAAGAGUAAGAAGAAAUAUAAGAGCCACCAUGAACUUUCUCUUGUCAUGGGUGCACUGGAGCCUUGCGCUGCUGCUGUAUCUUCAUCACGCUAAGUGGAGCCAGGCCGCACCCAUGGCGGAGGGUGGCGGACAGAAUCACCACGAAGUAGUCAAAUUCAUGGACGUGUACCAGAGGUCGUAUUGCCAUCCGAUUGAAACUCUUGUGGAUAUCUUUCAAGAAUACCCCGAUGAAAUCGAGUACAUUUUCAAACCGUCGUGUGUCCCUCUCAUGAGGUGCGGGGGAUGCUGCAAUGAUGAAGGGUUGGAGUGUGUCCCCACGGAGGAGUCGAAUAUCACAAUGCAAAUCAUGCGCAUCAAACCACAUCAGGGUCAGCAUAUUGGAGAGAUGUCCUUUCUCCAGCACAACAAAUGUGAGUGUAGACCGAAGAAGGACCGAGCCCGACAGGAAAACCCAUGCGGACCGUGCUCCGAGCGGCGCAAACACUUGUUCGUACAAGACCCCCAGACAUGCAAGUGCUCAUGUAAGAAUACCGAUUCGCGGUGUAAGGCGAGACAGCUGGAAUUGAACGAGCGCACGUGUAGGUGCGACAAGCCUAGACGGUGAGCUGCCUUCUGCGGGGCUUGCCUUCUGGCCAUGCCCUUCUUCUCUCCCUUGCACCUGUACCUCUUGGUCUUUGAAUAAAGCCUGAGUAGGAAG",Protein,[7]; 2 pg transfected,0 pg/mL
same,Protein,[7]; 10 pg transfected,0 pg/mL
same,Protein,[7]; 39 pg transfected,0 pg/mL
same,Protein,[7]; 610 fg transfected,0 pg/mL
